From PMC11878239, “Biochemical investigations using mass spectrometry to monitor JMJD6-catalysed hydroxylation of multi-lysine containing bromodomain-derived substrates” (RSC Chemical Biology, 2025)
“And” between values parts separate entries of the source, which are not always exact repeats. Identical values can stand only once. Like-named read-outs stand apart in the source and are kept apart here.

Columns and labels:
[1] = tested on: PHD2; details: PHD2 (4 μM), cited from earlier work; for k cat: O2
[2] = tested on: KDM4A; details: KDM4A versus JMJD6
[3] = tested on: PHD2; details: PHD2 versus JMJD6
[4] = biological target: T1, full-length His6-JMJD6 (Homo sapiens, UniProt Q6NYC1); test: SPE-MS kinetics of JMJD6 for O2; format: biochemical
T1 construct: An enzyme mixture (10 μL) containing full-length His6-JMJD6 (5 μM; final concentration: 0.05 μM); made in house; host or cells: Escherichia coli BL21 (DE3), pET-28a(+) plasmid
Protocol: (§1) Recombinant human JMJD6 (full length with a N-terminal His6-tag) was produced in Escherichia coli BL21 (DE3) cells using a pET-28a(+) plasmid and purified by standard Ni(II)-affinity size-exclusion chromatography, as previously reported.[40] […] Purified JMJD6 was stored at −78 °C; fresh aliquots were used for all JMJD6 assays.
Assays to determine the kinetic parameters of JMJD6 for O2 were performed in 2 mL gas-tight glass vials (Sigma-Aldrich) in independent triplicates. 50 mM Tris buffer (pH 7.5; 0.95 mL) was incubated in a 2 mL gas-tight glass vial at 37 °C for 30 min with a fixed O2 concentration (in N2; specified in Fig S9, ESI ^†), adjusted using a mass flow controller. […] The JMJD6-catalysed reaction was performed at 37 °C at a fixed O2 concentration and was stopped after the reaction time specified (Fig. S9, ESI ^†) by the addition of 20%v/v aqueous formic acid (100 μL) and analysed by SPE-MS. The %-concentration of O2 in N2, adjusted with a mass flow controller, was converted into an O2 concentration [μM] by calibration using a standard (i.e., y[μM] = 9.026·x[%]).[100] Data were analysed by SPE-MS as described above to calculate apparent JMJD6 kinetic parameters for O2.

[5] = tested on: KDM4A; details: KDM4A (1 μM), H3_1–15K9me3 as substrate; cited from earlier work
[6] = tested on: phytanoyl-CoA dioxygenase (PHYH); details: PHYH (50 μM), isovaleryl-CoA as substrate, oxygen consumption assay, cited from earlier work
[7] = tested on: AspH; details: AspH (0.1 μM), hFX-CP101–119 as substrate, cited from earlier work
[8] = tested on: FIH; details: FIH (5 μM), HIF-1α789–822 as substrate, cited from earlier work
[9] = tested on: KDM4C; details: KDM4C (3 μM), H3_1–15K9me3 as substrate, oxygen consumption assay, cited from earlier work
[10] = tested on: KDM4E; details: KDM4E (2.1 μM), H3_1–15K9me3 as substrate, oxygen consumption assay, cited from earlier work
[11] = tested on: AspH; details: AspH versus JMJD6
[12] = tested on: type I human collagen prolyl 4-hydroxylase (CP4H-I); details: (Pro-Pro-Gly)10 as substrate, [14C]CO2 release; cited from earlier work
[13] = tested on: BBOX; set-up: method as in PMID 25030770, PMID 24317009; details: BBOX (0.05 μM); 1H NMR turnover assay; cited from earlier work
[14] = tested on: JMJD5; set-up: method as in PMID 37292060; details: SPE-MS, cited from earlier work
[15] = tested on: PHD2; set-up: method as in PMID 18952043; details: PHD2 (1.0 nM), HIF-1α-derived biotin-DLEMLAPYIPMDDDFQL as substrate; FRET assay; 2OG or Fe(II); cited from earlier work
[16] = biological target: T1, full-length His6-JMJD6; test: SPE-MS kinetics of JMJD6-catalysed lysyl hydroxylation (2OG, Fe(II), LAA, BRD-derived peptides); format: biochemical; details: 2OG or Fe(II) varied, BRD4_511–550 (2 μM) as substrate, 0.05 μM full-length His6-JMJD6, ambient temperature
Protocol: as §1
Peptides were used as 10 mM stock solutions in DMSO (Sigma-Aldrich; BioUltra grade).
Assay samples were aspirated under vacuum for 0.4 s, then loaded onto a C4 solid phase extraction (SPE) cartridge. After loading, the C4 SPE cartridge was washed with 0.1%v/v aqueous formic acid to remove non-volatile buffer salts (5 s, 1.5 mL min^−1). The peptide was eluted from the SPE cartridge with 0.1%v/v aqueous formic acid in 75/25v/v acetonitrile/water into the mass spectrometer (5 s, 1.6 mL min^−1) and the SPE cartridge re-equilibrated with 0.1%v/v aqueous formic acid (1 s, 1.25 mL min^−1).
Peaks corresponding to the m/z +5 charge states of the BRD-derived substrate peptide and the hydroxylated product peptides were extracted from the ion chromatogram and integrated using RapidFire Integrator 4.3.0 (Agilent). Peak area data were exported into Microsoft Excel and used to calculate the relative abundance of the mono-hydroxylated product peptide using the following equation: […]
The concentration of the mono-hydroxylated product peptide was calculated by multiplying the %-fraction of the mono-hydroxylated product peptide by the initial concentration of the substrate peptide employed in the assay. Initial reaction velocities were then calculated and fitted to a Michaelis–Menten plot using nonlinear regression (GraphPad Prism 5).

[17] = tested on: NO66_183–641; set-up: method as in PMID 34843649; details: NO66_183–641 (0.3 μM), RPL8_205–224 as substrate; SPE-MS; 2OG or Fe(II); cited from earlier work
[18] = tested on: AspH315–758; set-up: method as in PMID 32107312; details: AspH315–758 (0.1 μM), hFX-CP101–119 as substrate; SPE-MS; 2OG or Fe(II); cited from earlier work
[19] = LAA 100 μM, 50 mM Tris pH 7.5, ~20 min, SPE-MS, mean ± SD n = 3

## O=O [O2, dioxygen]
[1]; HIF-1α395–413 as substrate
  k cat: 0.028 ± 0.001 s⁻¹
  K m for O2: >450 µM
[1]; HIF-1α556–574 as substrate
  k cat: 0.06 ± 0.01 s⁻¹
  K m for O2: 460 ± 30 µM
[2]
  K^app m (O2): fold greater than that of JMJD6: ~2 fold
[3]
  K^app m (O2): fold greater than that of JMJD6: ~6 fold
[4]; JMJD6/BRD4_511–550 versus CP4H-I (ref 26)
  K^app m (O2) of JMJD6: fold greater than CP4H-I: ~2 fold
[4]; JMJD6/BRD4_511–550 versus KDM6B (ref 96)
  K^app m (O2) of JMJD6: fold greater than KDM6B: ~4 fold
[4]; O2 varied, BRD4_511–550 (2 μM) as substrate, 0.05 μM full-length His6-JMJD6, 50 mM Tris pH 7.5, 37 °C, quenched after 60 or 90 s, SPE-MS, mean ± SD n = 3
  apparent Michaelis constant K^app m for O2: 69.8 ± 11.4 µM and 74 ± 14 µM
[4]; O2 varied, BRD4_511–550 (2 μM) as substrate, 0.05 μM full-length His6-JMJD6, 50 mM Tris pH 7.5, 37 °C, quenched after 60 or 90 s, mean ± SD n = 3
  apparent turnover number k^app cat: 0.12 ± 0.01 s⁻¹
[4]; O2 varied, BRD4_511–550 (2 μM) as substrate, 0.05 μM full-length His6-JMJD6, pH 7.5, 37 °C, n = 3
  specificity constant kcat/Km: 1700 ± 400 M⁻¹ s⁻¹
[5]
  K m for O2: 173 ± 23 µM
[6]; O2
  k cat: 0.016 s⁻¹
[6]
  K m for O2: 93 ± 43 µM
[7]
  K m for O2: 426 ± 73 µM
[7]; O2
  k cat: 0.23 ± 0.04 s⁻¹
[8]
  K m for O2: 110 ± 30 µM
[8]; O2
  k cat: 0.56 ± 0.04 s⁻¹
[9]
  K m for O2: 158 ± 13 µM
[9]; O2
  k cat: 0.043 ± 0.001 s⁻¹
[10]
  K m for O2: 197 ± 16 µM
[10]; O2
  k cat: 0.067 ± 0.001 s⁻¹
[11]
  K^app m (O2): fold greater than that of JMJD6: ~6 fold
[12]
  K m for O2: ~40 µM

## C[N+](C)(C)CCCC(=O)[O-] [γ-butyrobetaine]
[13]
  K m (substrate): 4.2 µM
  k cat (substrate): 0.83 s⁻¹

## RSP6_128–148: JMJD5 substrate
[14]
  k cat/Km (substrate): 11500 ± 6300 M⁻¹ s⁻¹

## ammonium iron(II) sulfate hexahydrate [Fe(II)]
[15]
  K^app m: 0.89 ± 0.07 µM
[16]; [19]
  apparent Michaelis constant K^app m: 0.19 ± 0.02 µM
  apparent maximum velocity v^app max: 3.6 ± 0.1 nM/s
[16]; pH 7.5, calculated from v^app max assuming active JMJD6 = total enzyme, n = 3
  apparent turnover number k^app cat: 0.072 ± 0.002 s⁻¹
[16]; pH 7.5, n = 3
  specificity constant kcat/Km: 380000 ± 50000 M⁻¹ s⁻¹
[17]
  K^app m: 0.014 ± 0.001 µM
[18]
  K^app m: 1.42 ± 0.16 µM
  k cat/Km: 130000 ± 30000 M⁻¹ s⁻¹
  k^app cat: 0.19 ± 0.03 s⁻¹
[14]; RSP6_128–148 as substrate, 2OG or Fe(II)
  k cat/Km: 38500 ± 6200 M⁻¹ s⁻¹
